Experimental findings from PubChem BioAssay (NCI) are described below.

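All cell lines were grown in 96-well plates and treated with compound for 48 hours. GI50 is the concentration that inhibits growth by half. At the TGI there is no net growth.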

Among the test systems are NCI-H522 lung; SF-539 CNS; U251 CNS; ACHN renal; K-562 leukemia; A549 NSCLC; M14 melanoma; NCI-H23 lung; SW-620 colon.
Common to all, as to assay: NCI-60 cell line screen, 48 h

As to `Cc1ccc(OCC(=O)N2N=C(c3ccccc3)CC2(O)c2ccccc2)cc1` (centres undefined), the TGI in the assay on NCI-H522 lung is over 100 µM; in the assay on SF-539 CNS, over 100 µM; with U251 CNS, 34.1 µM; in the assay on ACHN renal, over 100 µM; in the assay on K-562 leukemia, over 100 µM; in the assay with A549 NSCLC, 82.8 µM. In addition, the TGI with M14 melanoma was 90 µM; in the assay on NCI-H23 lung it was over 100 µM; with SW-620 colon, over 100 µM.
In the case of `O=C(Oc1ccc(Cl)cc1Cl)c1ccccc1Nc1ccnc(C(F)(F)F)c1`, the GI50 was 4.61 µM in the assay on NCI-H522 lung; 3.77 µM in the assay with SF-539 CNS; 13.2 µM with ACHN renal; 3.03 µM in the assay with K-562 leukemia; 11.1 µM in the assay on A549 NSCLC; 1.92 µM in the assay on M14 melanoma. In addition, the values for the GI50 in the assay with NCI-H23 lung and with SW-620 colon were 3.51 µM and 4.59 µM, respectively. The TGI in the assay on NCI-H522 lung was determined as 36 µM; in the assay on SF-539 CNS, 12 µM; in the assay with ACHN renal, 27 µM; in the assay on K-562 leukemia, 8.51 µM; in the assay on A549 NSCLC, 33.1 µM; in the assay with M14 melanoma, 4.93 µM. Further, the TGI with NCI-H23 lung came to 13.6 µM; in the assay with SW-620 colon, 32.5 µM.
Regarding `Cc1ccc(-[n+]2c3cc(N)c(C)cc3nc3cc(C)c(Nc4ccccc4)cc32)cc1`, the GI50 with NCI-H522 lung was 0.249 µM; in the assay on ACHN renal, 0.107 µM; in the assay with K-562 leukemia, 0.0393 µM; with A549 NSCLC it was 0.0441 µM; with M14 melanoma, 0.134 µM; with SW-620 colon, 0.0708 µM. The TGI stood at 0.788 µM in the assay with NCI-H522 lung; 1.17 µM with ACHN renal; 2.69 µM in the assay on K-562 leukemia; 1.19 µM in the assay with A549 NSCLC; 0.428 µM with M14 melanoma; 1.08 µM in the assay with SW-620 colon.
Turning to `COc1ccc2cc(C(=O)/C=C/c3cc(OC)c(OC)c(OC)c3)ccc2c1`, the GI50 in the assay with U251 CNS was 1.68 µM; with ACHN renal, 7.17 µM; with K-562 leukemia it was 2.49 µM; in the assay on A549 NSCLC, 2.56 µM; in the assay with M14 melanoma, 6.52 µM; in the assay with NCI-H23 lung it was 1.77 µM. Moreover, the GI50 with SW-620 colon was 1.51 µM. The TGI in the assay on U251 CNS was 9.48 µM; in the assay with ACHN renal it was 18.2 µM; in the assay on K-562 leukemia, over 50 µM; in the assay on A549 NSCLC, 44.5 µM; in the assay with M14 melanoma it was 16.1 µM; in the assay on NCI-H23 lung it was 11.2 µM. The compound further registered a TGI in the assay with SW-620 colon of 6.91 µM.
For `COc1ccc(-c2nc3sc(C)cn3c2/C=C/C(=O)c2cc(OC)c(OC)c(OC)c2)cc1`, the GI50 was 0.88 µM in the assay with NCI-H522 lung; 4.28 µM with SF-539 CNS; 4.04 µM in the assay on U251 CNS; 4.13 µM with ACHN renal; 3.13 µM in the assay with K-562 leukemia; 3.37 µM in the assay on A549 NSCLC. For the same compound, the GI50 with M14 melanoma is 3.97 µM. Besides, the TGI in the assay with NCI-H522 lung is 3.14 µM; in the assay on SF-539 CNS it was over 100 µM; with U251 CNS, over 100 µM; in the assay with ACHN renal it was over 100 µM; in the assay with K-562 leukemia, over 100 µM; in the assay on A549 NSCLC, over 100 µM. This compound also gave a TGI with M14 melanoma of over 100 µM.
Consider `CCOC(=O)[C@@]1(C)C=C2O[C@@H]3OC4(CCCCC4)O[C@@H]3C2=C2C(O)=CC=C(O)[C@]21C(=O)OC`, for which the TGI in the assay on NCI-H522 lung, in the assay on U251 CNS, with ACHN renal, in the assay on K-562 leukemia, in the assay on A549 NSCLC and in the assay on M14 melanoma was over 68 µM each time. For the same compound, the TGI with NCI-H23 lung and in the assay with SW-620 colon was over 68 µM each time.
Consider `COc1cc([C@H]2c3cc4c(cc3O[C@@]3(O)COC(=O)[C@@H]23)OCO4)cc(OC)c1OC`, for which the TGI with NCI-H522 lung, in the assay with SF-539 CNS, in the assay with U251 CNS, with ACHN renal, with K-562 leukemia and in the assay on A549 NSCLC was over 100 µM each time. The TGI in the assay with M14 melanoma and with SW-620 colon was over 100 µM each time.
`O=c1oc2cc(OS(=O)(=O)c3ccc(F)cc3)ccc2c2c1CCCCC2`: the GI50 with SF-539 CNS, in the assay on U251 CNS, in the assay with ACHN renal, in the assay on A549 NSCLC, in the assay on M14 melanoma and in the assay on NCI-H23 lung was over 100 µM in each case. Also, the TGI with SF-539 CNS, in the assay with U251 CNS, in the assay with ACHN renal, in the assay on A549 NSCLC, with M14 melanoma and in the assay on NCI-H23 lung was over 100 µM throughout.
In the case of `O=[N+]([O-])c1ccc(C(c2c[nH]c3ccccc23)c2c[nH]c3ccccc23)cc1`, the TGI in the assay on SF-539 CNS is 30.6 µM; with U251 CNS it was 45.3 µM; with ACHN renal, 21.5 µM; in the assay with K-562 leukemia, 48 µM; in the assay on A549 NSCLC, 41.4 µM; in the assay with M14 melanoma, 33.2 µM. Also, the TGI in the assay on NCI-H23 lung stood at 21.4 µM; in the assay on SW-620 colon, 27.9 µM.
Take `COc1ccc2[nH]c3c(c2c1)CCN(C)CC3`: the TGI with SF-539 CNS, in the assay on U251 CNS, in the assay with ACHN renal, with K-562 leukemia, in the assay with A549 NSCLC and in the assay with M14 melanoma was over 100 µM throughout. Moreover, the TGI in the assay on NCI-H23 lung and in the assay on SW-620 colon was over 100 µM in each case.
